# Values of other authors, collected in publication PMC9660540 (Clinical Cancer Research, 2022).
# Where two headings read alike, the source gives them in different places.
# Key:
# advanced NSCLC = details: in combination with carboplatin, pemetrexed, and pembrolizumab; of 6 evaluable patients; ref [47]; cited from earlier work
# [1] = phase I trials; ref [45]; cited from earlier work
# [2] = cited from earlier work
# mCRPC = details: cited from earlier work; for OS benefit: phase III clinical trials, ref [35–37]
# [3] = test system: renal cell carcinoma (RCC); details: pretreated patients with RCC; ref [43]; cited from earlier work
compound,measurement,setting,value
Cc1c(C#N)cccc1-c1cc(-c2cn(Cc3cccc(C(C)(C)O)n3)nn2)nc(N)n1 [AB928],Patients with a PR,advanced NSCLC,3 patients
C[S@+]([O-])CCOc1cc(N2CCN(CCn3c(=O)sc4c3nc(N)n3nc(-c5ccco5)nc43)CC2)c(F)cc1F [EOS100850],Best response of SD,[1],6 patients
same,Grade ≥3 treatment-related AEs,"[2]; up to doses of 160 mg twice daily, ref [42, 45]",no grade ≥3 treatment-related AEs
Nc1nc(-n2cccn2)nc(-n2cccn2)c1Br [NIR178],Grade ≥3 treatment-related AEs,"[2]; monotherapy, at the highest doses (480 and 640 mg), ref [42, 44]","nausea, increased AST, ALT, and lipase levels, and pneumonitis"
CO[C@H]1C(=O)[C@]2(C)[C@@H](OC)C[C@H]3OC[C@@]3(OC(C)=O)[C@H]2[C@H](OC(=O)c2ccccc2)[C@]2(O)C[C@H](OC(=O)[C@H](O)[C@@H](NC(=O)OC(C)(C)C)c3ccccc3)C(C)=C1C2(C)C [cabazitaxel],Median PFS,"mCRPC; later-line mCRPC, ref [48]",3.9 months
Cc1ccc(-c2nc(N)nc3c2nnn3Cc2cccc(CO[C@H]3CCOC3)n2)o1 [ciforadenant],Patients with a PR,[3],3%
same,Patients with tumor regression,"mCRPC; mCRPC, with or without atezolizumab, of 33 patients, ref [46]",5 patients
same,Most common treatment-related AEs,"[2]; ref [42, 43]","fatigue, nausea, and pruritus"
atezolizumab: anti–PD-L1 antibody,OS benefit,mCRPC; mCRPC,failed to demonstrate an OS benefit
durvalumab: human immunoglobulin G1 monoclonal antibody that inhibits binding of PD-L1 to PD-1 and CD80,Grade 3−4 treatment-related events,"[2]; durvalumab monotherapy, PACIFIC study, ref [33]",11.8%
ipilimumab: anti–CTLA-4 antibody,OS benefit,mCRPC; mCRPC,failed to demonstrate an OS benefit
